According to patent US20110212053A1, “PHOSPHATIDYLINOSITOL 3 KINASE INHIBITORS” (priority 2008, published 2011):

Columns and labels:
Format in all cases: biochemical
MELK = molecular target: T1, MELK (Homo sapiens, UniProt Q14680); assay: MELK kinase assay (KinaseGLO)
T1 construct: purchased Invitrogen or Millipore
Procedure: (§1) Compound Preparation: KinaseGLO assay: 30× stocks of inhibitors were prepared in DMSO. A 10 mM master stock was prepared and all other stocks were generated by serial dilution of this master stock in DMSO. The final concentration of DMSO in the kinase reaction was 3.3% (v/v).
MELK kinase assay: The ability of compounds to inhibit MELK was also determined using the KinaseGLO assay. Briefly, MELK enzymes was thawed and diluted to a final concentration of 2.64 ng/μL in reaction buffer (50 mM HEPES, pH7.5, 100 mM NaCl, 2.0 mM DTT, 3.0 mM MgCl2, 1.0 mM EGTA, 10 μM ATP). 19 μl of this kinase reaction mixture was aliquoted into test wells (50 ng MELK/well) in a Microfluor2 white 96-well plate (Thermo Scientific). As a preincubation step, 1 μl of 30× compound dilutions was added to the appropriate test wells to generate a ten point dose-response ranging from 0.0 μM-10 μM inhibitor, and incubated for 15 minutes at 4° C. The reaction was started by addition of 10 μL of 150 μM ZIPtide peptide substrate resuspended in reaction buffer (50 μM final concentration of ZIPtide). Reactions were incubated at room temperature for 2 hours prior to addition of 30 μL of KinaseGLO reagent and development as described. Maximal luminescence (no MELK activity/maximal MELK inhibition) was determined from reaction buffer plus peptide substrate only controls. The minimal signal (maximal MELK activity) was determined by the 0.0 μM compound (DMSO only) control. IC50 values were calculated via non-linear regression using GraphPad Prism data analysis software. […]
Compounds of the invention were assayed against the select kinases using the KinaseGLO assay (MELK) or the radiometric assay (PIM, TRKC, PDGFRα(D842V), MNK1 and mTOR). IC50 values were determined using 8-10 point half-log dose dilutions and calculated via nonlinear regression analysis using Graphpad Prism data analysis software.

PI3Kα(H1047R) = molecular target: T2, PI3Kα(H1047R) (Homo sapiens, UniProt P42336, H1047R); assay: KinaseGLO luminescent PI3-kinase assay, mutant PI3Kα(H1047R)
T2 construct: purchased Invitrogen or Millipore
T2 sequence (P42336 whole entry H1047R): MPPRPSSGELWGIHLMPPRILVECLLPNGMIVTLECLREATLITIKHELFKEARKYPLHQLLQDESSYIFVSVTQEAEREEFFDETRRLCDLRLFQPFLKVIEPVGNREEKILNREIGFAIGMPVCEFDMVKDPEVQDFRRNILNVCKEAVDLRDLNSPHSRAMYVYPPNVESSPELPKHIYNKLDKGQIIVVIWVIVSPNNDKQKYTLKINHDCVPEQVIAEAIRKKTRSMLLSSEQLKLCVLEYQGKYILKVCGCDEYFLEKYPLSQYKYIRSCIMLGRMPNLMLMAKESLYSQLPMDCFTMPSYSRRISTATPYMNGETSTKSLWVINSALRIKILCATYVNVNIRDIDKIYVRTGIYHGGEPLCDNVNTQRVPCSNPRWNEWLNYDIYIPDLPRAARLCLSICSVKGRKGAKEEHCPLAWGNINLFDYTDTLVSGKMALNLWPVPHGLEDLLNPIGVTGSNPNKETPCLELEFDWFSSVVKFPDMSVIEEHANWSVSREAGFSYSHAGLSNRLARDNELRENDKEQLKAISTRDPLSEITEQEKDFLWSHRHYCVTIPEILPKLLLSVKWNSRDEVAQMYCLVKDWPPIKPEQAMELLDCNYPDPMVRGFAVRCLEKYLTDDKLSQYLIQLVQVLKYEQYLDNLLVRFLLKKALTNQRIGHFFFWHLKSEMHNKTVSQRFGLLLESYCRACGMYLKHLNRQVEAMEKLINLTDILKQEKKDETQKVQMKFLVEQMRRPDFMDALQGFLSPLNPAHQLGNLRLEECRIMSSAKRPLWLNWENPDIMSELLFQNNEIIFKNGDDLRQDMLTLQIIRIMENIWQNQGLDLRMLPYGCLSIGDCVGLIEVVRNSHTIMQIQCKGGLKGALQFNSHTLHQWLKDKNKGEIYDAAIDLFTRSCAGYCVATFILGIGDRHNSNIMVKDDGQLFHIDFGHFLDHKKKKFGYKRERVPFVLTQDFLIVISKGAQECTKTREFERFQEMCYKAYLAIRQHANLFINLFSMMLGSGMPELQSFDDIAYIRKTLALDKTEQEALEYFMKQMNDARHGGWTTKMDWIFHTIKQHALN
T2 sequence (P27986 whole entry partner): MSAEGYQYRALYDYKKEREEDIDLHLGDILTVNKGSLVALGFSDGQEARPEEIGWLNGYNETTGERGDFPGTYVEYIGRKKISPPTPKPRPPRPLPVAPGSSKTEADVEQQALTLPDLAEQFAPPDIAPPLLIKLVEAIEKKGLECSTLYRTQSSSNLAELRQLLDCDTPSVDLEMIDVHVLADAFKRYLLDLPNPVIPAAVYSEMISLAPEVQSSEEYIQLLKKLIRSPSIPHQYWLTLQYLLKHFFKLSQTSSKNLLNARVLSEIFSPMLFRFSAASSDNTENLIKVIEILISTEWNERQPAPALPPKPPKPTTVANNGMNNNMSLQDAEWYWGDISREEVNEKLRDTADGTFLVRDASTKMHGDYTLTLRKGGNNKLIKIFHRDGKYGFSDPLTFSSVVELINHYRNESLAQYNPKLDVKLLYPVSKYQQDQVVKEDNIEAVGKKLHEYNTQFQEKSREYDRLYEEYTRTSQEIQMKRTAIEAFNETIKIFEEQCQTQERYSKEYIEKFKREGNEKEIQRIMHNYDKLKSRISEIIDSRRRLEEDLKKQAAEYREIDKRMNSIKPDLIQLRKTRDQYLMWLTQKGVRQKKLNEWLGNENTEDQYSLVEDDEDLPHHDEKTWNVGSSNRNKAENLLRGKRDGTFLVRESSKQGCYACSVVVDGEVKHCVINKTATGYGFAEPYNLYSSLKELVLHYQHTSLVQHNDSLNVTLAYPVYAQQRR
Procedure: as §1
(§2) PI3-Kinase Assay: The KinaseGLO® Luminescent Kinase Assay (Promega) is a luciferin-luciferase based luminescent assay that utilizes a proprietary thermostable luciferase to quantify the ATP remaining in a solution after a kinase reaction. The luminescent signal generated using KinaseGLO® directly correlates with ATP concentration, and therefore inversely correlates with kinase activity.
(§3) PI3K enzyme sample was thawed and diluted to 100 ng/μL in enzyme dilution buffer (50 mM HEPES, pH7.5, 3.0 mM MgCl2, 1.0 mM EGTA) and stored on ice. PI3Kα enzyme was diluted to a final concentration of 1 ng/μL in reaction buffer (for PI3Kα; 50 mM HEPES, pH7.5, 100 mM NaCl, 2.0 mM DTT, 3.0 mM MgCl2, 1.0 mM EGTA, 10 μM ATP) and gently mixed. 25 μL of this kinase reaction was then aliquoted into test wells in a Microfluor2 white 96-well plate (Thermo Scientific). As a preincubation step, 1 μl of 30× compound dilutions was added to the appropriate test wells to generate a ten point dose-response ranging from 0.0 μM-10 μM inhibitor. […] Luminescent signal was detected using a SpectraMax M5 (Molecular Devices). Maximal luminescence (no PI3K activity/maximal PI3K inhibition) was determined from reaction buffer plus SC-PI substrate only controls. The minimal signal (maximal PI3K activity) was determined by the 0.0 μM compound (DMSO only) control. IC50 values were calculated via non-linear regression using GraphPad Prism data analysis software.
(§4) Compounds were assayed against the Class I PI3Kα, PI3Kβ, PI3Kγ, PI3Kδ, PI3Kα(H1047R) and PI3Kα(E545K) in the KinaseGLO assay as described in Example 2, and against the Class IV PI3K mTOR in the radiometric assay. IC50 values (μM) were determined using 8-10 point half-log dose dilutions and calculated via nonlinear regression analysis using Graphpad Prism data analysis software.

PI3Kβ = molecular target: T3, PI3Kβ (Homo sapiens, UniProt P42338); assay: KinaseGLO luminescent PI3-kinase assay, PI3Kβ
T3 construct: purchased Invitrogen or Millipore
T3 sequence (P42338 whole entry): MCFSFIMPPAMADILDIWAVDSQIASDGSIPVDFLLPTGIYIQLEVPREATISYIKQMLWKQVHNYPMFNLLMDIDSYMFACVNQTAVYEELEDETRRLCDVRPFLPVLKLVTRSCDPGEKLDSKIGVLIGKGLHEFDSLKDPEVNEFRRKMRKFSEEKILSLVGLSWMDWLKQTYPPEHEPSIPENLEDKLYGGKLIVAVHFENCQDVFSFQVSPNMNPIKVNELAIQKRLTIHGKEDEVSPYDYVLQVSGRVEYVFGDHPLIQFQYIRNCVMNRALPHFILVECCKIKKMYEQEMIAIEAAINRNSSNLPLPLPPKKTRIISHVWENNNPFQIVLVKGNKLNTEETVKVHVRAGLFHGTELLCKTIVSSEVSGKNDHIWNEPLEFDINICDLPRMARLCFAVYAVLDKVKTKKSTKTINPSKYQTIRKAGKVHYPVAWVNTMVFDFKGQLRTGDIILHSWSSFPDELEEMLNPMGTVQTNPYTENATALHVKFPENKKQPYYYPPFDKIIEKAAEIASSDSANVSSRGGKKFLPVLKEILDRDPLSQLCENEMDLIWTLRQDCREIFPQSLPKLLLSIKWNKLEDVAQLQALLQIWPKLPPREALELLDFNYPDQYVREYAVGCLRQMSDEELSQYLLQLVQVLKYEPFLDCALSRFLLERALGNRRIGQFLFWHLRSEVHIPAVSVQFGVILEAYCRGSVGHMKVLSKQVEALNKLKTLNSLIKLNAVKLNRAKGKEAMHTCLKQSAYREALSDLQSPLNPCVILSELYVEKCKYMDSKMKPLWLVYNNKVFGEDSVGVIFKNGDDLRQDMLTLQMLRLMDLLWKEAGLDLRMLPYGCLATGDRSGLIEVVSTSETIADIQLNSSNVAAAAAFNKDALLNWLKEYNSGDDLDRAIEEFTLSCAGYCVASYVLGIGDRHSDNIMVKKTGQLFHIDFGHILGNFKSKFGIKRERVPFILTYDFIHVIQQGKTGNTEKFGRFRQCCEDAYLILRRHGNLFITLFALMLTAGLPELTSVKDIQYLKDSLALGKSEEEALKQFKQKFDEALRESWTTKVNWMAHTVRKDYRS
T3 sequence (P27986 whole entry partner): as the sequence (P27986 whole entry partner) above
Procedure: as §1, §2, §3, §4

PI3Kα = molecular target: T4, PI3Kα (Homo sapiens, UniProt P42336); assay: KinaseGLO luminescent PI3-kinase assay, PI3Kα
T4 construct: purchased Invitrogen or Millipore
T4 sequence (P42336 whole entry): as the sequence (P42336 whole entry H1047R) above, with R1047H counted along it
T4 sequence (P27986 whole entry partner): as the sequence (P27986 whole entry partner) above
Procedure: as §1, §2
PI3K enzyme sample was thawed and diluted to 100 ng/μL in enzyme dilution buffer (50 mM HEPES, pH7.5, 3.0 mM MgCl2, 1.0 mM EGTA) and stored on ice. PI3Kα enzyme was diluted to a final concentration of 1 ng/μL in reaction buffer (for PI3Kα; 50 mM HEPES, pH7.5, 100 mM NaCl, 2.0 mM DTT, 3.0 mM MgCl2, 1.0 mM EGTA, 10 μM ATP) and gently mixed. 25 μL of this kinase reaction was then aliquoted into test wells in a Microfluor2 white 96-well plate (Thermo Scientific). As a preincubation step, 1 μl of 30× compound dilutions was added to the appropriate test wells to generate a ten point dose-response ranging from 0.0 μM-10 μM inhibitor. The enzyme-inhibitor mixture was then incubated for 30 minutes at 4° C. After this preincubation, […] (50 μM final concentration) was added to each test well to initiate the kinase reaction. Reactions were incubated at room temperature for 2 hours with moderate shaking. The KinaseGLO® luminescent reagent (Promega) was prepared according to the manufacturer's instructions. Both the KinaseGLO® buffer and substrate were allowed to thaw and equilibrate at room temperature for two hours prior to mixing and use. The PI3-kinase reaction was terminated by the addition of 30 μL of reconstituted KinaseGLO® reagent to each reaction well and then incubated in the dark for 10 minutes at room temperature. Luminescent signal was detected using a SpectraMax M5 (Molecular Devices). Maximal luminescence (no PI3K activity/maximal PI3K inhibition) was determined from reaction buffer plus SC-PI substrate only controls. The minimal signal (maximal PI3K activity) was determined by the 0.0 μM compound (DMSO only) control. IC50 values were calculated via non-linear regression using GraphPad Prism data analysis software.
as §4

PI3Kγ = molecular target: T5, PI3Kγ (Homo sapiens, UniProt P48736); assay: KinaseGLO luminescent PI3-kinase assay, PI3Kγ
T5 construct: purchased Invitrogen or Millipore
T5 sequence (P48736 whole entry): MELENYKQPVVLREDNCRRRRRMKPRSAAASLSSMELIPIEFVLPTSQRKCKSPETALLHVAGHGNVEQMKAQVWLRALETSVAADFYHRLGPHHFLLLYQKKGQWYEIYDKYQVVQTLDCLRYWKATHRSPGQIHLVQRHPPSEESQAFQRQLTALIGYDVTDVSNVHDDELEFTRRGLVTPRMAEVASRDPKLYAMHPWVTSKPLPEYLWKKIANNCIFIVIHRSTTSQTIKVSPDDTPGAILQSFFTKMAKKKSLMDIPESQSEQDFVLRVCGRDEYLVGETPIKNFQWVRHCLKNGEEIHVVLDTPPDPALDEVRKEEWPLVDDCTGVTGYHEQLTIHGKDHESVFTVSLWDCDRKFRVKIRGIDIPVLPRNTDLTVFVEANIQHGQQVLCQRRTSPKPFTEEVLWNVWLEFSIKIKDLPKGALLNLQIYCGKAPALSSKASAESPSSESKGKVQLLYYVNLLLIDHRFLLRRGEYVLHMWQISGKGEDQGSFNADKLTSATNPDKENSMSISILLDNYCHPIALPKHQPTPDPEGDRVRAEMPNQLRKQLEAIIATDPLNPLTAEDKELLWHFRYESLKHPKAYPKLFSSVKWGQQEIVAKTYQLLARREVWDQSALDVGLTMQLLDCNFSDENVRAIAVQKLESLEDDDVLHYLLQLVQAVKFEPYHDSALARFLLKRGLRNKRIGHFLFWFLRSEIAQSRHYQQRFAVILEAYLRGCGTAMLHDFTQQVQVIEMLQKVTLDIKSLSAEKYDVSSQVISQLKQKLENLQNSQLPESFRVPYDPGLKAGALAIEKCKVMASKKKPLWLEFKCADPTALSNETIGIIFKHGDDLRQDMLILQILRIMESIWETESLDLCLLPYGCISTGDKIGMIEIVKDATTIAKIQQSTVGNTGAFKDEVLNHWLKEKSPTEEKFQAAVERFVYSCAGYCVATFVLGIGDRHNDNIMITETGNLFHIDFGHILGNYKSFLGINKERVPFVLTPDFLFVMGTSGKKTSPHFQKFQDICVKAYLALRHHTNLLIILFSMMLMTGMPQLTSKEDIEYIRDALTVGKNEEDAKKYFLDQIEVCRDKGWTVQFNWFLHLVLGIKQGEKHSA
Procedure: as §1, §2, §3, §4

T1 sequence (Q14680 whole entry): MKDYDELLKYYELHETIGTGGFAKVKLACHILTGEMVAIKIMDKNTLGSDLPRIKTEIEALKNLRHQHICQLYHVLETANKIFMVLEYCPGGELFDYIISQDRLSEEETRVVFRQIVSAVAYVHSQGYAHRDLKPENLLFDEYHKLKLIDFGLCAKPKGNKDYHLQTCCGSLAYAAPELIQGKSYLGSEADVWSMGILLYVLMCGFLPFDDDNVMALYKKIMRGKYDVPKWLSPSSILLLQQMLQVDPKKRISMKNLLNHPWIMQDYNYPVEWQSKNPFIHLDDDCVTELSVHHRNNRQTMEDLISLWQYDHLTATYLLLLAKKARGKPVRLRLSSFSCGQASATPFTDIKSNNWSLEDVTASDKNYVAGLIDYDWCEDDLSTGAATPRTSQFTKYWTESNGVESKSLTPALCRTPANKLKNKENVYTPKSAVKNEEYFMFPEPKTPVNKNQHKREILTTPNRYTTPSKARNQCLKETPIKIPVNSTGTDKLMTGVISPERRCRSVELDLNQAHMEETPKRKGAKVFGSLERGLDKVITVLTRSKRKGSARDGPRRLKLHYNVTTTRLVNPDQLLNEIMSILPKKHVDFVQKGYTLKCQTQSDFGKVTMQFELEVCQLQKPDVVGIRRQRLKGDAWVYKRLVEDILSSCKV

IC50 (MELK) | IC50 (PI3Kα(H1047R)) | IC50 (PI3Kβ) | IC50 (PI3Kα) | IC50 (PI3Kγ) | SMILES
> 30 nM | > 25 nM | > 50 nM | > 20 nM | 10 to 25 nM | CC(C)(C#N)c1ccc(-c2n[nH]c3cnc4ccc(-c5cnc6ccccc6c5)cc4c23)cc1 [Compound 1078, 2-methyl-2-(4-(8-(quinolin-3-yl)-3H-pyrazolo[3,4-c]quinolin-1-yl)phenyl)propanenitrile]
< 12 nM | 5 to 25 nM | 35 to 50 nM | < 10 nM | 10 to 25 nM | CC(C)(C#N)c1ccc(-c2n[nH]c3cnc4ccc(-c5cccnc5)cc4c23)cc1 [Compound 1107, 2-methyl-2-(4-(8-(pyridin-3-yl)-3H-pyrazolo[3,4-c]quinolin-1-yl)phenyl)propanenitrile]
> 30 nM | > 25 nM | > 50 nM | < 10 nM | 10 to 25 nM | CC(C)(C#N)c1ccc(-c2n[nH]c3cnc4ccc(-c5ccc6ncccc6c5)cc4c23)cc1 [Compound 1110, 2-methyl-2-(4-(8-(quinolin-6-yl)-3H-pyrazolo[3,4-c]quinolin-1-yl)phenyl)propanenitrile]
